US8846570B2, “Herbicidal compositions comprising 4-amino-3-chloro-5-fluoro-6-(4-chloro-2-fluoro-3-methoxyphenyl)pyridine-2-carboxylic acid or a derivative thereof and microtubule inhibiting herbicides” (Dow AgroSciences LLC, priority 2012, dated 2014)
Where two headings read alike, the source gives them in different places.

Experiments:
Format in all cases: in vivo
[1] = tested on: Ipomoea hederacea Jacq. (IPOHE); experiment: Postemergence foliar-applied, direct seeded rice, greenhouse: visual weed control; details: post-emergence, read-out: Visual Weed Control (%) Obs
Procedure: (§1) Seeds or nutlets of the desired test plant species were planted in a soil matrix prepared by mixing a loam or sandy loam soil (e.g., 28.6 percent silt, 18.8 percent clay, and 52.6 percent sand, with a pH of about 5.8 and an organic matter content of about 1.8 percent) and calcareous grit in an 80 to 20 ratio. The soil matrix was contained in plastic pots with a volume of 1 quart and a surface area of 83.6 cm^2. […] The plants were grown for 8-22 days in a greenhouse with an approximate 14 h photoperiod which was maintained at about 29° C. during the day and 26° C. during the night. Nutrients (Peters Excel® 15-5-15 5-Ca 2-Mg and iron chelate) were applied in the irrigation solution as needed and water was added on a regular basis. Supplemental lighting was provided with overhead metal halide 1000-Watt lamps as necessary. The plants were employed for testing when they reached the first through fourth true leaf stage.
(§2) Forms of compound A were applied on an acid equivalent basis.
(§3) For treatments comprised of formulated compounds, measured amounts of compounds were placed individually in 25 mL glass vials and diluted in a volume of 1.25% (v/v) Agri-Dex® crop oil concentrated to obtain 12× stock solutions. […] Application solutions were prepared by adding an appropriate amount of each stock solution (e.g., 1 mL) and diluted to the appropriate final concentrations with the addition of 10 mL of an aqueous mixture of 1.25% (v/v) crop oil concentrate so that the final spray solutions contained 1.25+/−0.05% (v/v) crop oil concentrate.
(§4) As required, additional water and/or 97:3 v/v acetone/DMSO was added to individual application solutions so that the final acetone and DMSO concentrations of the application solutions being compared were 8.1% and 0.25%, respectively.
(§5) All stock solutions and applications solutions were visually inspected for compound compatibility prior to application. Spray solutions were applied to the plant material with an overhead Mandel track sprayer equipped with a 8002E nozzles calibrated to deliver 187 L/ha over an application area of 0.503 m^2 at a spray height of 18 to 20 inches (46 to 50 cm) above average plant canopy height. Control plants were sprayed in the same manner with the solvent blank.
(§6) The treated plants and control plants were placed in a greenhouse as described above and watered by sub-irrigation to prevent wash-off of the test compounds. After approximately 3 weeks, the condition of the test plants as compared with that of the untreated plants was determined visually and scored on a scale of 0 to 100 percent where 0 corresponds to no injury or growth inhibition and 100 corresponds to complete kill.
(§7) Colby's equation was used to determine the herbicidal effects expected from the mixtures (Colby, S. R. 1967. Calculation of the synergistic and antagonistic response of herbicide combinations. Weeds 15:20-22.).
(§8) The following equation was used to calculate the expected activity of mixtures containing two active ingredients, A and B: Expected=A+B−(A×B/100)

[2] = tested on: Ipomoea hederacea (L.) Jacq. (IPOHE); experiment: Pre-emergence soil-applied, greenhouse: visual weed control; details: Propyzamide 1120 g ai/ha alone; soil-applied pre-emergence; 33 DAA
Source text: (§9) Seeds or nutlets of the desired test plant species were planted in a soil matrix prepared by mixing a loam soil (e.g., 32 percent silt, 23 percent clay, and 45 percent sand, with a pH of about 6.5 and an organic matter content of about 1.9 percent) and calcareous grit in an 80 to 20 ratio. The soil matrix was contained in plastic pots with a volume of 1 quart and a surface area of 83.6 square centimeters (cm^2).
as §2
(§10) For treatments comprised of formulated compounds, measured amounts of compounds were placed individually in 25 mL glass vials and diluted in a volume of 1.25% (v/v) Agri-Dex® crop oil concentrate (COC) to obtain 12× stock solutions. […] Application solutions were prepared by adding an appropriate amount of each stock solution (e.g., 1 mL) and diluted to the appropriate final concentrations with the addition of 10 mL of an aqueous mixture of 1.25% (v/v) COC so that the final spray solutions contained 1.25% (v/v) COC.
(§11) For treatments comprised of formulated and technical compounds, weighed amounts of the technical materials were placed individually in 25 mL glass vials and dissolved in a volume of 97:3 (v/v) acetone/DMSO to obtain 12× stock solutions, and measured amounts of the formulated compounds were placed individually in 25 mL glass vials and diluted in a volume of 1.5% (v/v) COC or water to obtain 12× stock solutions. […] Application solutions were prepared by adding an appropriate amount of each stock solution (e.g., 1 mL) and diluted to the appropriate final concentrations with the addition of an appropriate amount of an aqueous mixture of 1.5% (v/v) COC so that the final spray solutions contained 1.25% (v/v) COC. As required, additional water and/or 97:3 (v/v) acetone/DMSO was added to individual application solutions so that the final acetone and DMSO concentrations of the application solutions being compared were 8.1% and 0.25%, respectively.
(§12) All stock solutions and applications solutions were visually inspected for compound compatibility prior to application. Spray solutions were applied to the soil with an overhead Mandel track sprayer equipped with a 8002E nozzles calibrated to deliver 187 L/ha over an application area of 0.503 m^2 at a spray height of 18 inches (46 cm) above average pot height. Control pots were sprayed in the same manner with the solvent blank.
The treated and control pots were placed in a greenhouse and top watered as needed. […] The pots were maintained in a greenhouse with an approximate 14 hr photoperiod which was maintained at about 29° C. during the day and 26° C. during the night. Nutrients (Peters® Excel 15-5-15 5-Ca 2-Mg) were applied in the irrigation solution as needed and water was added on a regular basis. Supplemental lighting was provided with overhead metal halide 1000-Watt lamps as necessary. After approximately 4 weeks, the condition of the test plants as compared with that of the untreated plants was determined visually and scored on a scale of 0 to 100 percent where 0 corresponds to no injury or growth inhibition and 100 corresponds to complete kill.
as §7, §8

[3] = tested on: Echinochloa colonum (L.) Link (ECHCO); experiment: as above
Source text: as §9
(§13) Treatments consisted of the benzyl ester of 4-amino-3-chloro-5-fluoro-6-(4-chloro-2-fluoro-3-methoxy-phenyl)pyridine-2-carboxylic acid (compound A) formulated as an SC (suspension concentrate) and various herbicidal components alone and in combination. Forms of compound A were applied on an acid equivalent basis.
(§14) Treatment requirements were calculated based upon the rates being tested, the concentration of active ingredient or acid equivalent in the formulation, and a 12 mL application volume at a rate of 187 L/ha.
as §10, §11, §12
(§15) The treated and control pots were placed in a greenhouse and top watered as needed. When required to ensure good germination and healthy plants, a fungicide treatment and/or other chemical or physical treatment was applied. The pots were maintained in a greenhouse with an approximate 14 hr photoperiod which was maintained at about 29° C. during the day and 26° C. during the night. Nutrients (Peters® Excel 15-5-15 5-Ca 2-Mg) were applied in the irrigation solution as needed and water was added on a regular basis. Supplemental lighting was provided with overhead metal halide 1000-Watt lamps as necessary. After approximately 4 weeks, the condition of the test plants as compared with that of the untreated plants was determined visually and scored on a scale of 0 to 100 percent where 0 corresponds to no injury or growth inhibition and 100 corresponds to complete kill.
(§16) Colby's equation was used to determine the herbicidal effects expected from the mixtures (Colby, S. R. 1967. Calculation of the synergistic and antagonistic response of herbicide combinations. Weeds 15:20-22.). […]

[4] = tested on: Setaria faberi Herrm. (SETFA); experiment: as above
Source text: as §9, §13, §14, §10, §11, §12, §15, §16

[5] = tested on: Sesbania exaltata (Raf.) Cory/Rydb. Ex Hill (SEBEX); experiment: as above
Source text: as §9, §13, §14, §10, §11, §12, §15, §16

[6] = tested on: Echinochloa crus-galli (L.) P. Beauv. (ECHCG); experiment: as above
Source text: as §9, §13, §14, §10, §11, §12, §15, §16

[7] = tested on: Brachiaria platyphylla (Groseb.) Nash or Urochloa platyphylla (Nash) R.D. Webster (BRAPP); experiment: as above
Source text: as §9, §13, §14, §10, §11, §12, §15, §16

[8] = tested on: Xanthium strumarium L. (XANST); experiment: as above; details: 27 DAA
Source text: as §9, §13, §14, §10, §11, §12, §15, §16

[9] = tested on: Echinochloa crusgalli (L.) Beauv. (ECHCG); experiment: Postemergence foliar-applied, direct seeded rice, greenhouse: visual weed control; details: 21 DAA
Procedure: as §1, §2, §3, §4, §5, §6, §7, §8

[10] = tested on: Leptochloa chinensis (L.) Nees (LEFCH); experiment: In-water applied, transplanted paddy rice, greenhouse: visual weed control; details: 21 DAA
Procedure: Weed seeds or nutlets of the desired test plant species were planted in puddled soil (mud) prepared by mixing a shredded, non-sterilized mineral soil (50.5 percent silt, 25.5 percent clay, and 24 percent sand, with a pH of about 7.6 and an organic matter content of about 2.9 percent) and water at a 1:1 volumetric ratio. The prepared mud was dispensed in 365 mL aliquots into 16-ounce (oz.) non-perforated plastic pots with a surface area of 86.59 square centimeters (cm^2) leaving a headspace of 3 centimeters (cm) in each pot. Mud was allowed to dry overnight prior to planting or transplanting. Rice seeds were planted in Sun Gro MetroMix® 306 planting mixture, which typically has a pH of 6.0 to 6.8 and an organic matter content of about 30 percent, in plastic plug trays. Seedlings at the second or third leaf stage of growth were transplanted into 860 mL of mud contained in 32-oz. non-perforated plastic pots with a surface area of 86.59 cm^2 4 days prior to herbicide application. The paddy was created by filling the headspace of the pots with 2.5 to 3 cm of water. When required to ensure good germination and healthy plants, a fungicide treatment and/or other chemical or physical treatment was applied. The plants were grown for 4-22 days in a greenhouse with an approximate 14 h photoperiod which was maintained at about 29° C. during the day and 26° C. during the night. Nutrients were added as Osmocote® (19:6:12, N:P:K+minor nutrients) at 2 g per 16.-oz. pot and 4 g per 32-oz. pot. Water was added on a regular basis to maintain the paddy flood, and supplemental lighting was provided with overhead metal halide 1000-Watt lamps as necessary. The plants were employed for testing when they reached the first through fourth true leaf stage.
Treatments consisted of the acid or esters of 4-amino-3-chloro-5-fluoro-6-(4-chloro-2-fluoro-3-methoxy-phenyl)pyridine-2-carboxylic acid (compound A) each formulated as an SC and various herbicidal components alone and in combination. Forms of compound A were applied on an acid equivalent basis.
Treatment requirements for each compound or herbicidal component were calculated based upon the rates being tested, the concentration of active ingredient or acid equivalent in the formulation, an application volume of 2 mL per component per pot, and an application area of 86.59 cm^2 per pot.
For formulated compounds, a measured amount was placed in an individual 100 or 200 mL glass vial and was dissolved in a volume of 1.25% (v/v) Agri-Dex® crop oil concentrate to obtain application solutions.
For technical grade compounds, a weighed amount was placed in an individual 100 to 200 mL glass vial and was dissolved in a volume of acetone to obtain concentrated stock solutions. […] The concentrated stock solutions obtained were diluted with an equivalent volume of an aqueous mixture containing 2.5% (v/v) crop oil concentrate so that the final application solutions contained 1.25% (v/v) crop oil concentrate.
Applications were made by injecting, with a pipetter, appropriate amounts of the application solutions into the aqueous layer of the paddy. Control plants were treated in the same manner with the solvent blank. Applications were made so that all treated plant material received the same concentrations of acetone and crop oil concentrate.
The treated plants and control plants were placed in a greenhouse as described above and water was added as needed to maintain a paddy flood. After approximately 3 weeks the condition of the test plants as compared with that of the untreated plants was determined visually and scored on a scale of 0 to 100 percent where 0 corresponds to no injury or growth inhibition and 100 corresponds to complete kill.
as §16

Compound: C#CC(C)(C)NC(=O)c1cc(Cl)cc(Cl)c1 [Propyzamide]
- pest or weed control at 70 g/ha ([1]; 528 h, 22 DAA, 70 g ai/ha): 0%
- pest or weed control at 140 g/ha ([1]; 528 h, 22 DAA, 140 g ai/ha): 0%
- pest or weed control at 280 g/ha ([1]; 528 h, 22 DAA, 280 g ai/ha): 0%
- Visual Weed Control (%) - 33 DAA IPOHE Obs [2]: 35%
- Visual Weed Control (%) - 33 DAA ECHCO Obs ([3]; Propyzamide 280 g ai/ha alone): 0%
- Visual Weed Control (%) - 33 DAA ECHCO Obs ([3]; Propyzamide 560 g ai/ha alone): 23%
- Visual Weed Control (%) - 33 DAA ECHCO Obs ([3]; Propyzamide 1120 g ai/ha alone): 80%
- Visual Weed Control (%) - 33 DAA SETFA Obs ([4]; Propyzamide 280 g ai/ha alone): 0%
- Visual Weed Control (%) - 33 DAA SETFA Obs ([4]; Propyzamide 560 g ai/ha alone): 68%
- Visual Weed Control (%) - 33 DAA SETFA Obs ([4]; Propyzamide 1120 g ai/ha alone): 93%
- Visual Weed Control (%) - 33 DAA SEBEX Obs ([5]; Propyzamide 280 g ai/ha alone): 20%
- Visual Weed Control (%) - 33 DAA SEBEX Obs ([5]; Propyzamide 560 g ai/ha alone): 13%
- Visual Weed Control (%) - 33 DAA SEBEX Obs ([5]; Propyzamide 1120 g ai/ha alone): 37%
- Visual Weed Control (%) - 33 DAA ECHCG Obs ([6]; Propyzamide 560 g ai/ha alone): 35%
- Visual Weed Control (%) - 33 DAA ECHCG Obs ([6]; Propyzamide 1120 g ai/ha alone): 53%
- Visual Weed Control (%) - 33 DAA BRAPP Obs ([7]; Propyzamide 280 g ai/ha alone): 20%
- Visual Weed Control (%) - 33 DAA BRAPP Obs ([7]; Propyzamide 560 g ai/ha alone): 37%

Compound: COC(=O)c1c(C(F)F)nc(C(F)(F)F)c(C2=NCCS2)c1CC(C)C [Thiazopyr, methyl 2-(difluoromethyl)-5-(4,5-dihydro-2-thiazolyl)-4-(2-methylpropyl)-6-(trifluoromethyl)-3-pyridinecarboxylate]
- pest or weed control at 280 g/ha ([1]; 480 h): 40%
- Visual Weed Control (%) Obs ([8]; 280 g ai/ha): 15%
- Visual Weed Control (%) Obs ([8]; 560 g ai/ha): 10%

Compound: CCCCOC(=O)c1nc(-c2ccc(Cl)c(OC)c2F)c(F)c(N)c1Cl [Compound A n-Butyl Ester]
- pest or weed control at 17.5 g/ha ([1]; 504 h): 40%
- Visual Weed Control (%) Obs ([9]; 17.5 g ae/ha): 45%
- Visual Weed Control (%) Obs ([9]; 35 g ae/ha): 70%
- Visual Weed Control (%) Obs ([10]; 35 g ae/ha): 8%
- Visual Weed Control (%) Obs ([10]; 70 g ae/ha): 38%
